Source: patent US9549927B2, “Heteroaryl compounds and uses thereof” (Celgene Avilomics Research, Inc., priority 2012, dated 2017)

Molecular target: T1, full-length recombinant human Btk protein (Homo sapiens, UniProt Q06187)
T1 construct: The full-length recombinant human Btk protein; purchased Invitrogen (Carlsbad, Calif.) Lot #619547Q (catalogue number not given)
Assay: Covalent bonding assay, intact protein MALDI mass spectrometry
Format: binding
Conditions: 60 minutes incubation, 10-fold excess of compound to protein, room temperature
Description: The following example describes testing certain compounds to determine whether they covalently bind to BTK. The full-length recombinant human Btk protein (Lot #619547Q; 0.35 mg/mL) was obtained from Invitrogen (Carlsbad, Calif.). Btk protein was diluted 2:3 in phosphate-buffered saline and stock concentration (10 mM) of compound was diluted 1:115 in 50% DMSO.
For all compounds, 1 μL of diluted compound was added to 5 μL of diluted protein. These mixtures were then incubated for 60 minutes at a 10-fold excess of compound to protein under room temperature (˜24° C.) conditions.
At the end of the incubation, 5 μL aliquots of the samples were diluted with 15 μL of 0.2% TFA prior to micro C4 ZipTipping® directly onto the MALDI target plate using sinapinic acid as the desorption matrix (10 mg/mL in 0.2% TFA:Acetonitrile 50:50). Samples were immediately analyzed on an ABSciex 4800 MALDI TOF-TOF mass spectrometer.
For intact protein mass measurement, the mass spectrometer was set in linear mode using a pulsed extraction setting of 81,500. Bovine serum albumin (BSA; Sigma, St Louis, Mo.) was used as the standard to calibrate the instrument. These values correspond to the percentage of total protein covalently modified by the tested compound after one hour incubation.

T1 sequence (Q06187 whole entry): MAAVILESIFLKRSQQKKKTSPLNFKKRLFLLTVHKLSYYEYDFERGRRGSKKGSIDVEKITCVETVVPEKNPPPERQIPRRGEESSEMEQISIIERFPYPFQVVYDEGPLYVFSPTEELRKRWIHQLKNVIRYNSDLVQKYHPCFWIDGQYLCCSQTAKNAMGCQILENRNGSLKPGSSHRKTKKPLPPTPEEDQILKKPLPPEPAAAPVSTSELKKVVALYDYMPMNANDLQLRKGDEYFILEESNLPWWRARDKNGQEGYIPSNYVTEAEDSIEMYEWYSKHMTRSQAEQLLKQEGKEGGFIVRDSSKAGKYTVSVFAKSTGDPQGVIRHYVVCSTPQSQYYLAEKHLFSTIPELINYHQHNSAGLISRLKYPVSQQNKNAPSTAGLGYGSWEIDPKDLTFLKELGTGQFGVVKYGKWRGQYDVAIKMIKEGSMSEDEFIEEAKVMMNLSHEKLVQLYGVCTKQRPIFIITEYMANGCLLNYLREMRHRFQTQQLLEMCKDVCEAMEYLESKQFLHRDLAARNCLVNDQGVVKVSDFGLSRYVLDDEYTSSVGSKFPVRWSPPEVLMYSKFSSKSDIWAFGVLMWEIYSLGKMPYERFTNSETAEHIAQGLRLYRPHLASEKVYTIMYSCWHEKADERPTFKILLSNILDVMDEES

Row | Compound | MS % modification
1 | O=C(Nc1cccc(Nc2nc(Nc3ccc(O)cc3)ncc2F)c1)C(O)CO (stereo not drawn) [Compound I-6, N-(3-((5-fluoro-2-((4-hydroxyphenyl)amino)pyrimidin-4-yl)amino)phenyl)-2,3-dihydroxypropanamide] | C (<30% modification)
2 | COCCOc1ccc(Nc2ncc(F)c(Nc3cccc(NC(=O)C4CO4)c3)n2)cc1 (stereo not drawn) [Compound I-19, N-(3-((5-fluoro-2-((4-(2-methoxyethoxyl)phenyl)amino)pyrimidin-4-yl)amino)phenyl)oxirane-2-carboxamide] | A (>70% modification)

The remaining lines, values ahead:

Row | MS % modification | Compound
3 | B (31-69% modification) | C=CC(=O)Nc1cccc(Nc2nc(Nc3ccc(OCCO)cc3)ncc2F)c1 [Compound I-1, N-(3-((5-fluoro-2-((4-(2-hydroxyethoxyl)phenyl)amino)pyrimidin-4-yl)amino)phenyl)acrylamide]
4 | A (>70% modification) | C=CC(=O)Nc1cccc(Nc2nc(Nc3ccc(O)cc3)ncc2F)c1 [Compound I-3, N-(3-((5-fluoro-2-((4-hydroxyphenyl)amino)pyrimidin-4-yl)amino)phenyl)acrylamide]
5 | C (<30% modification) | COCCOc1ccc(Nc2ncc(F)c(Nc3cccc(NC(=O)C(O)CO)c3)n2)cc1 (stereo not drawn) [Compound I-4, N-(3-((5-fluoro-2-((4-(2-methoxyethoxyl)phenyl)amino)pyrimidin-4-yl)amino)phenyl)-2,3-dihydroxypropanamide]
6 | C (<30% modification) | O=C(Nc1cccc(Nc2nc(Nc3ccc(OCCO)cc3)ncc2F)c1)C(O)CO (stereo not drawn) [Compound I-5, N-(3-((5-fluoro-2-((4-(2-hydroxyethoxyl)phenyl)amino)pyrimidin-4-yl)amino)phenyl)-2,3-dihydroxypropanamide]
